Measured values: patent US20140011772A1, “COMPOSITIONS AND METHODS FOR TREATING CONDITIONS ASSOCIATED WITH NEURONAL DYSFUNCTION” (NORTHWESTERN UNIVERSITY, priority 2009, published 2014)
“Also recorded” adds a separate entry of the source.

Columns and labels:
[1] = test system: CA1 pyramidal neurons in 4-AP bathed slices; assay: 4-AP induced burst firing, whole-cell current clamp in 4-AP bathed slices; type: cell-based, rat
Procedure: The trace segments between dashed lines are shown on an expanded time scale (insets) to resolve bursts. (B) Firing frequency in response to depolarizing current injections. (C) Interspike interval ratio (ISI) against different current injections. For each current step, the ISI ratio was obtained dividing the interval between the first two spikes by the mean interspike interval. Recordings were obtained at 24-25° C.
(§1) Electrophysiological recordings: Slices were visualized with an Axioskop 2FS (Zeiss) upright microscope with a water-immersion 60× objective (0.9 NA, Olympus). For whole cell current-clamp recordings, the bath solution contained kynurenic acid (2 mM) and picrotoxin (0.1 mM) to block fast synaptic transmission, and pipettes were filled with internal solution consisting of: 140K-gluconate, 8 mM NaCl, 2 mM MgCl2, 1 mM EGTA, 2 mM Na2ATP 2, 0.1 mM NaGTP, 10 mM HEPES, pH 7.3 with KOH.
Experiments were conducted during development of embodiments of the present invention to examine the inhibitory effect of FFA on burst firing. All CA1 pyramidal cells show robust burst firing in the presence of 4-Aminopyridine (4-AP), a potassium channel blocker. Whole-cell current clamp recordings were obtained from CA1 pyramidal neurons in 4-AP bathed slices. These recordings were also performed at 32-33° C. and in the presence of kynurenic acid and picrotoxin.

SNI rats = assay: Von Frey pain thresholds in the spared nerve injury (SNI) model of chronic neuropathic pain; type: in vivo, rat; settings: for analgesic effect: 10 mg/kg in ethanol, oral; for analgesic effect / effect on pain threshold: 10 mg/kg; for effect on pain threshold: 10 mg/kg oral, both paws / non-operative paw
Procedure: Von Frey thresholds (a standard measure of pain sensitivity) were measured on the operated paw (left panel) and on the contralateral paw (right panel) in adult rats. 4 animals received the drug (10 mg/kg oral administration), and 4 animals the vehicle only. […] Note the fast onset of the effect, which may be very important for clinical use.
Chronic pain constitutes a primary reason driving people to seek health care. Pain was has been described as “epidemic” by the American Academy of Pain Management (American Pain Society, 1999): 50 million Americans are partially or totally disabled by pain. […] In particular, the spared nerve injury model (SNI), a reliable animal model of chronic neuropathic pain, was used to test the effect of oral administration of FFA. Control experiments were performed administrating the vehicle only. […] KCNK channels regulate neuronal excitability by regulating membrane potential, input resistance and synaptic gain (see, e.g., Taverna S, et al., 2005, J Neurosci Oct. 5; 25(40):9162-70; Meuth S G, et al., 2003 J Neurosci. Jul. 23; 23(16):6460-9; each herein incorporated by reference in their entireties).

[2] = test system: epileptiform discharges in 4AP treated rat hippocampal slices; assay: 4AP-induced epileptiform discharges, extracellular recordings from the CA1 area of hippocampal slices; type: cell-based
Procedure: A, extracellular recordings from the CA1 area of a rat hippocampal slices in which epileptic-like activity was induced by bath application of 4AP (50 μM). […] B, in another 4AP treated slice, the effects of different concentrations of FFA were tested.
Similar pathophysiologies exist for epilepsy and various chronic pain disorders (see, e.g., Pappagallo M (2003) Clin Ther. 25:2506-38; herein incorporated by reference in its entirety). […] Epileptic discharges were induced in a slice of rodent hippocampal tissue by bath application of the voltage-gated potassium channel blocker 4-aminopyridine (4AP) (see, e.g., Lopantsev V, Avoli M. (1998) J Physiol. 509:785-96; Brückner C, et al., Neurosci Lett. 268:163-5; each herein incorporated by reference in their entireties). […] The effect of flufenamic acid on hippocampal neurons, for example, involves induction of neuronal hyperpolarization by activating a background potassium conductance, and a reduction of neuronal excitability by inhibition of the voltage-gated sodium current.
Hippocampal brain slices: 11- to 20-day-old Long-Evans rats were anesthetized with isoflurane and killed by decapitation. The brain was removed from the skull in ice-cold artificial cerebrospinal fluid (ACSF), containing: 125 mM NaCl, 25 mM NaHCO3, 2.5 mM KCl, 1.25 mM NaH2PO4, 1.8 mM CaCl2, 1 mM MgCl2 and 2 mM 5 glucose, bubbled with 95% O2 and 5% CO2 (pH 7.4). Transverse hippocampal slices (300 μm thick) were cut using a vibroslicer (Dosaka) and stored in a solution containing: 87 mM NaCl, 25 mM NaHCO3, 2.5 mM KCl, 1.25 mM NaH2PO4, 0.5 mM CaCl2, 7 mM MgCl2, 75 mM sucrose and 25 mM glucose, bubbled with 95% O2 and 5% CO2; slices were kept at 35° C. for 15-20 minutes and subsequently at 24-25° C.

[3] = test system: voltage-gated sodium channels of hippocampal CA1 pyramidal neurons; assay: Voltage-clamp nucleated patch recordings of voltage-gated sodium currents in CA1 pyramidal cells; type: cell-based, rat
Procedure: To study the gating properties of the sodium channels, voltage-clamp recordings were performed in the nucleated patch configuration, which allows almost ideal voltage clamp, even for fast sodium currents (28). Recordings were performed at 24-25° C. using an Axopatch 200B (Axon Instruments) patch-clamp amplifier. Data were sampled at 20 kHz and filtered at 10 kHz. Patch pipettes had resistance of 2.5-4 MΩ (in working solution) and were pulled from Corning #0010 lead glass (WPI) or borosilicate 0.4 mm-walled glass (Dagan). The internal solution was CsCl-based and contained: 140 mM CsCl, 10 mM NaCl, 2 mM MgCl2, 10 mM EGTA, 2 mM Na2ATP, 0.1 mM NaGTP, 10 mM HEPES 10, pH 7.3 with CsOH.
Capacitive transients were reduced by wrapping the pipettes in parafilm and compensated using the fast compensation circuitry of the amplifier. The whole-cell configuration was obtained and the pyramidal identity of cells was quickly confirmed by presence of a sag in the membrane potential in response to a hyperpolarizing current injection. The pipette was then slowly withdrawn while applying a constant negative pressure (−90 to −130 mbar). After excision, patches were held at −90 mV with a small pressure (−15 to −20 mbar). Sodium currents were then obtained by offline digital subtraction of traces in TTX from control traces.
Drugs were applied to the patches by using a multi-barrel system consisting of 4 glass capillaries (1.5 mm ID) glued together and connected to a syringe pump (WPIL). The patch-pipette carrying the nucleated patch was inserted into each of the pipes, each containing a different extracellular solution. The system ensures that the solution speed is the same in each barrel. For these recordings, the extracellular solution consisted of HEPES-buffered ACSF: 138 mM NaCl, 10 mM HEPES, 2.5 mM KCl, 2 mM CaCl2, 1 mM MgCl2 and 25 mM glucose (pH 7.3), 50 μM CdCl2, 10 mM TEA, and the drugs of interest.
The voltage-dependence of activation was fit with a Boltzmann function f(V)=1/(1+exp(−(V−V1/2)/k)) raised to the third power, where V1/2 is the voltage at which the activation is half-maximal, and k is the slope factor. The voltage-dependence of inactivation was similarly determined using a Boltzmann function, f(V)=1/(1+exp ((V−V1/2)/k)). The time course of recovery from inactivation was fit with a bi-exponential equation of the form, f(t)=1-(A1 exp(−t/τ) +A2 exp(−t/τ2)), yielding two time constants (τ) and relative contribution (A).
Voltage-gated sodium currents were recorded in nucleated patches from CA1 pyramidal cells from 11- to 20-day-old rats. FFA was tested at 0.2 mM, a concentration similar to that used as Ican blocker (0.5 mM, (32) and as two-pore potassium channels opener (0.1 mM, (40)).
The effect of FFA on the amplitude of sodium currents recorded in nucleated patches was investigated using a 30 ms step (to 10 mV) from −70 mV (close to the resting potential of hippocampal pyramidal neurons). 200 μM FFA blocked 34% of the sodium current (FIG. 7). The mechanism of action of FFA on sodium channels was characterized in detail. Even with a cesium-based intracellular solution and in the presence of extracellular TEA and cadmium some contaminating currents could often still be detected in pyramidal cell nucleated patches; therefore analysis was performed on TTX-subtracted traces only. TTX-sensitive current data for the control and the FFA were obtained from different patches.

[4] = test system: CA1 hippocampal pyramidal neurons; assay: Whole cell current-clamp recordings, firing upon depolarizing current injection; type: cell-based, rat; settings: FFA 0.2 mM
Procedure: (A) Current clamp recordings obtained (at 32-33° C.) from a CA1 hippocampal neuron in response to depolarizing current injection (150 pA, 1 s, bottom) in control (top trace) and in the presence of FFA (200 μM, middle). (B) Firing frequency in response to a series of current injections (1 s, 30 pA steps) in control and in FFA.
as §1
The effect of FFA on burst and tonic firing of hippocampal pyramidal neurons was examined during development of embodiments of the present invention (FIG. 13). Recordings were obtained in the presence of kynurenic acid (2 mM) and picrotoxin (0.1 mM) to block fast synaptic transmission. […] For a 150 pA depolarizing current pulse the firing frequency decreased from 21.7±1.82 Hz in control conditions to 1.87±0.61 Hz in FFA (FIG. 13A,B).

[5] = FIG. 5: 100 ms pre-pulses, 30 ms test pulse to 0 mV, 2 nucleated patches

O=C(O)c1ccccc1Nc1cccc(C(F)(F)F)c1 [FFA, 2-[[3-(trifluoromethyl)phenyl]amino]benzoic acid]
effect on spikes and burst firing ([1]; 4-AP slice epilepsy model, bath application of FFA): dramatically reduced both the total number of spikes and bursting; also recorded: completely abolishes burst firing | interspike interval (ISI) ratio ([1]; 120 pA current injection, 4-AP, FFA 0.2 mM): 0.74±0.06 | analgesic effect (SNI rats): rapid and potent analgesic effect | analgesic effect (SNI rats; listed as flufenamic acid): potent analgesic effect | increase of Von Frey threshold on the injured paw (SNI rats; 10 mg/kg oral administration, operated paw): more than 10 times | effect on pain threshold (SNI rats): significantly increased the pain threshold in the non-operative paw | effect on pain threshold (SNI rats; listed as flufenamic acid): increased pain threshold in both paws | effect on epileptiform discharges ([2]; 50 μM FFA, 4AP treated slice): small reduction in the amplitude of individual events | effect on epileptiform discharges ([2]; 100 μM FFA, 4AP treated slice): strongly reduced the discharge frequency | effect on epileptiform discharges ([2]; 200 μM FFA, 4AP 50 μM): completely and reversibly inhibited the epileptiform discharges; also recorded: completely abolished the discharges | antiepileptic effect, concentration dependence ([2]; 4AP treated slices, 50-200 μM): clear dose-dependent effect; also recorded: potent, concentration dependent, antiepileptic effect | Na+ channel activation slope factor (k/3) ([3]; 200 μM FFA): 5.6±0.27 mV | block of the sodium current ([3]; 200 μM FFA, 30 ms step from −70 mV): 34% | mean peak Na+ current amplitude ([3]; 200 μM FFA, 50 ms prepulse to −70 mV, test pulse to −10 mV, 15 nucleated patches): −183.6±21.7 pA | Na+ channel activation mid-point potential ([3]; 200 μM FFA, Boltzmann raised to third power): −11.3±1.36 mV | shift in voltage dependence of inactivation ([3]; 50 ms prepulse): ~12 mV | steady-state inactivation mid-point potential ([3]; 50 ms prepulse, in FFA): −67.8±1.4 mV | steady-state inactivation slope factor ([3]; 50 ms prepulse, in FFA): 10.7±0.5 mV | steady-state inactivation mid-point potential ([3]; 200 ms prepulse, in FFA): −74.1±2.6 mV | steady-state inactivation slope factor ([3]; 200 ms prepulse, in FFA): 8.9±1.0 mV | sodium channel inactivation Boltzmann function half point [3, 5]: −89.7 mV | sodium channel inactivation Boltzmann slope [3, 5]: 9.1 mV | time constant of inactivation onset ([3]; at 0 mV, in FFA (0.2 mM)): 0.70 ± 0.03 ms | fraction of sodium channels available for activation ([3]; at −70 mV, in FFA): 0.57±0.04 | effect on the sodium channel activation curve ([3]; hippocampal pyramidal neurons): No significant effect; also recorded: only minimal effect | firing frequency ([4]; 150 pA, 1 s depolarizing current pulse, kynurenic acid and picrotoxin): 1.87±0.61 Hz | effect on number of action potentials / repetitive firing ([4]; 1 s-long depolarizing current injection): strongly decreased the number of action potentials; also recorded: effectively decreases repetitive firing
